This assay has as its target S. pneumoniae Topoisomerase IV ATPase (ParE) (Streptococcus pneumoniae serotype 4, UniProt Q59961). As to the kind of experiment: S. pneumoniae Topoisomerase IV ATPase inhibition. It counts as biochemical. The following applies: values marked * are an average of two or more data points, read-out: % Inh (13 μM) of S. pneumoniae Topoisomerase IV ATPase. In outline:
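ParE ATPase (1.25 nM) run with 160 μM ATP and 5 μg/ml sheared salmon sperm DNA in Tris pH 8.0, Mg2+, glycerol, DTT, Brij-35. Phosphate released read by malachite green/molybdate absorbance at 650 nm. IC50 from 10 compound concentrations; DMSO (2%) as 0% and EDTA (20 μM) as 100% inhibition.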
S. pneumoniae Topoisomerase IV ATPase (ParE), sequence (Q59961 whole entry): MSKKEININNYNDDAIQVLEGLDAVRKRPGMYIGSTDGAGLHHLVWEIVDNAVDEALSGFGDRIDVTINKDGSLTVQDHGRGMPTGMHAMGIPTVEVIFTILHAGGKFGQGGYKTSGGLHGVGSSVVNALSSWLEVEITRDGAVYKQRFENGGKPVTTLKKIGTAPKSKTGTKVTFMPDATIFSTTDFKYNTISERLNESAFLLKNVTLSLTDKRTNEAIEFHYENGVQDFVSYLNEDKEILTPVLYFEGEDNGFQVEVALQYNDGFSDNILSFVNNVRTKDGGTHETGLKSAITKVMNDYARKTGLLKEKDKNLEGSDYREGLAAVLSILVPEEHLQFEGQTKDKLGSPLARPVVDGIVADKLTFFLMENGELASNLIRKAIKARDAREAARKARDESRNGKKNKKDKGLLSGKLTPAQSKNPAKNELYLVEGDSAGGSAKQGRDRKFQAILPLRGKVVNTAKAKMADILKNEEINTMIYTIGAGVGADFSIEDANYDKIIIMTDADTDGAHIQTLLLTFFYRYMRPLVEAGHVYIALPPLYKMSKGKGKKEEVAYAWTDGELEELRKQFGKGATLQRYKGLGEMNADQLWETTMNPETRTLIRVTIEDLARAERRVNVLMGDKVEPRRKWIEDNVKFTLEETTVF
On to `COc1ncc(-c2cnc(Nc3ccc(F)c(Cl)c3)nc2NCc2ccncc2C)cn1` [Example 463, N2-(3-chloro-4-fluorophenyl)-2′-methoxy-N4-((3-methylpyridin-4-yl)methyl)-5,5′-bipyrimidine-2,4-diamine], for which the inhibition at 13 µM was 67%.
Take `Cc1cc(C(F)(F)F)nn1-c1nc(Nc2ccc(F)c(Cl)c2)ncc1-c1cc(C(=O)O)c(=O)n(CCN2CCN(C(C)C)CC2)c1` [Example 1090, 5-(2-(3-chloro-4-fluorophenylamino)-4-(5-methyl-3-(trifluoromethyl)-1H-pyrazol-1-yl)pyrimidin-5-yl)-1-(2-(4-isopropylpiperazin-1-yl)ethyl)-2-oxo-1,2-dihydropyridine-3-carboxylic acid]: the inhibition at 13 µM was 100%.
As for `CC(C)(C)OC(=O)NCCCNc1nc(Nc2ccc(F)c(Cl)c2)ncc1-c1cncnc1` [Example 74, tert-butyl 3-(2-(3-chloro-4-fluorophenylamino)-5,5′-bipyrimidin-4-ylamino)propylcar-bamate], the inhibition at 13 µM came out at 103%.
In the case of `CONC(=O)c1cc(-c2cnc(Nc3ccc(F)c(Cl)c3)nc2-n2nc(C(F)(F)F)cc2C)cnc1OC` [Example 1102, 5-(2-(3-chloro-4-fluorophenylamino)-4-(5-methyl-3-(trifluoromethyl)-1H-pyrazol-1-yl)pyrimidin-5-yl)-N,2-dimethoxynicotinamide] it was 96%; in that of `CCOC(=O)c1cncc(-c2cnc(Nc3ccc(F)c(Cl)c3)nc2NCCCN(C)C)c1` [Example 5, ethyl 5-(2-(3-chloro-4-fluorophenylamino)-4-(3-(dimethylamino)propylamino)pyrimidin-5-yl) nicotinate], 104%.
In the case of `Cc1cc(C(F)(F)F)nn1-c1nc(Nc2ccc(F)c(Cl)c2)ncc1-c1cncc(C(=O)NCCS(C)(=O)=O)c1` [Example 926, 5-(2-(3-chloro-4-fluorophenylamino)-4-(5-methyl-3-(trifluoromethyl)-1H-pyrazol-1-yl)pyrimidin-5-yl)-N-(2-(methylsulfonyl)ethyl)nicotinamide] it was 100%.
As to `Cc1ccc(F)c(Nc2ncc(-c3cncc(C(=O)O)c3)c(-n3nc(C(F)(F)F)cc3C)n2)c1` [Example 773, 5-{2-[(2-fluoro-5-methylphenyl)-amino]-4-[5-methyl-3-(trifluoromethyl)-1H-pyrazol-1-yl]pyrimidin-5-yl}pyridine-3-carboxylic acid], the inhibition at 13 µM is 55%.
Consider `COc1cc(Nc2ncc(-c3cnc(OC)c(C(=O)NS(=O)(=O)c4cn(C)cn4)c3)c(-n3nc(C(F)(F)F)cc3C)n2)cc(OC)c1` [Example 839, 5-{2-[(3,5-dimethoxyphenyl)amino]-4-[5-methyl-3-(trifluoromethyl)-1H-pyrazol-1-yl]pyrimidin-5-yl}-2-methoxy-N-[(1-methyl-1H-imidazol-4-yl)sulfonyl]pyridine-3-carboxamide], for which the inhibition at 13 µM was found to be 100%.
In the case of `NC(=O)c1cncc(-c2cnc(Nc3ccc(F)c(Cl)c3)nc2-n2cc(-c3ccccn3)cn2)c1` [Example 542] it was 85%; in that of `COCCCNc1nc(Nc2ccc(F)c(Cl)c2)ncc1-c1nc(-c2ccccc2)c(C(=O)O)s1` [Example 510, 2-{2-[(3-chloro-4-fluorophenyl)amino]-4-[(3-methoxypropyl)amino]pyrimidin-5-yl}-4-phenyl-1,3-thiazole-5-carboxylic acid], 97%; in that of `O=C(O)c1cncc(-c2cnc(Nc3ccc(F)c(Cl)c3)nc2N2CCC(O)CC2)c1` [Example 244, 5-[2-[(3-chloro-4-fluorophenyl)amino]-4-(4-hydroxypiperidin-1-yl)pyrimidin-5-yl]pyridine-3-carboxylic acid], 76.3%.
The result for `O=C(O)c1cncc(-c2cnc(Nc3ccc(F)c(Cl)c3)nc2NCC2CCCO2)c1` (stereo not shown) [Example 235, 5-[2-[(3-chloro-4-fluorophenyl)amino]-4-(oxolan-2-ylmethylamino)pyrimidin-5-yl]pyridine-3-carboxylic acid] reads 81.2%.
In the case of `COc1ncc(-c2cnc(Nc3cc(C)cc(C)c3)nc2-n2ccc(C(F)(F)F)n2)cc1C(=O)NS(=O)(=O)C(C)C` [Example 826, 5-{2-[(3,5-dimethylphenyl)amino]-4-[3-(trifluoromethyl)-1H-pyrazol-1-yl]pyrimidin-5-yl}-2-methoxy-N-(propan-2-ylsulfonyl)pyridine-3-carboxamide] it was 96%; in that of `O=C(O)c1cncc(-c2cnc(Nc3ccc(F)c(Cl)c3)nc2NCCN2CCS(=O)(=O)CC2)c1` [Example 231, 5-{2-(3-Chloro-4-fluoro-phenylamino)-4-[2-(1,1-dioxo-1λ^6-thiomorpholin-4-yl)-ethylamino]-pyrimidin-5-yl}-nicotinic acid], 81.5%.
Turning to `CS(=O)(=O)c1cncc(-c2cnc(Nc3ccc(F)c(Cl)c3)nc2-n2ccc(C(F)(F)F)n2)c1` [Example 990, N-(3-chloro-4-fluorophenyl)-5-(5-(methylsulfonyl)pyridin-3-yl)-4-(3-(trifluoromethyl)-1H-pyrazol-1-yl)pyrimidin-2-amine], the inhibition at 13 µM turned out to be 100%.
Take `Cc1cc(C(=O)O)nc(-c2cnc(Nc3ccc(F)c(Cl)c3)nc2-n2ccc(C(F)(F)F)n2)n1` [Example 879, 2′-(3-chloro-4-fluorophenylamino)-6-methyl-4′-(3-(trifluoromethyl)-1H-pyrazol-1-yl)-2,5′-bipyrimidine-4-carboxylic acid]: the inhibition at 13 µM came to 91%.
In the case of `COc1cc(Nc2ncc(-c3cc(C(=O)O)c(=O)n(C)c3)c(-n3nc(C(F)(F)F)cc3C)n2)cc(OC)c1` [Example 918, 5-(2-(3,5-dimethoxyphenylamino)-4-(5-methyl-3-(trifluoromnethyl)-1H-pyrazol-1-yl)poyrimidin-5-yl)-1-methyl-2-oxo-1,2-dihydropyridine-3-carboxylic acid], the inhibition at 13 µM is 100%.
Take `COc1cc(Nc2ncc(-c3cnc(OC)c(C(=O)NS(=O)(=O)C4=CCS(=O)(=O)C4)c3)c(-n3nc(C(F)(F)F)cc3C)n2)cc(OC)c1` [Example 840, 5-{2-[(3,5-dimethoxyphenyl)amino]-4-[5-methyl-3-(trifluoromethyl)-1H-pyrazol-1-yl]pyrimidin-5-yl}-N-[(1,1-dioxido-2,5-dihydrothiophen-3-yl)sulfonyl]-2-methoxypyridine-3-carboxamide]: the inhibition at 13 µM is 99%.
In the case of `COc1cc(Nc2ncc(-c3cccc(/C=C/C(=O)O)c3)c(N3CCOCC3)n2)cc(OC)c1` [Example 351, (E)-3-(3-(2-(3,5-dimethoxyphenylamino)-4-morpholinopyrimidin-5-yl)phenyl) acrylic acid] it was 82.8%; in that of `NC(=O)c1cc(-c2cnc(Nc3ccc(F)c(Cl)c3)nc2-n2ccc(C(F)(F)F)n2)ccn1` [Example 496, 4-{2-[(3-chloro-4-fluorophenyl)amino]-4-[3-(trifluoromethyl)-1H-pyrazol-1-yl]pyrimidin-5-yl}pyridine-2-carboxamide], 100%.
The result for `Cc1cc(C(F)(F)F)nn1-c1nc(Nc2ccc(F)c(Cl)c2)ncc1-c1cc(C(=O)O)c(=O)n(CCS(C)(=O)=O)c1` [Example 1093, 5-(2-(3-Chloro-4-fluorophenylamino)-4-(5-methyl-3-(trifluoromethyl)-1H-pyrazol-1-yl)pyrimidin-5-yl)-1-(2-(methylsulfonyl)ethyl)-2-oxo-1,2-dihydropyridine-3-carboxylic acid] reads 100%; that for `CCOC(=O)c1cncc(-c2cnc(Nc3ccc(F)c(Cl)c3)nc2NCCCN2CCCC2=O)c1` [Example 91, 5-{2-(3-Chloro-4-fluoro-phenylamino)-4-[3-(2-oxo-pyrrolidin-1-yl)-propylamino]-pyrimidin-5-yl}-nicotinic acid ethyl ester], 83.1%.
Take `COCCCNc1nc(Nc2ccc(F)c(Cl)c2)ncc1-c1cncc(C(=O)CC(=O)OC)c1` [Example 1040, Methyl 3-(5-(2-(3-chloro-4-fluorophenylamino)-4-(3-methoxypropylamino)pyrimidin-5-yl)pyridin-3-yl)-3-oxopropanoate]: the inhibition at 13 µM was found to be 86%.
Consider `O=C(O)c1cncc(-c2cnc(Nc3ccc(F)c(Cl)c3)nc2-n2nccn2)c1` [Example 317, 5-{4-(2H-1,2,3-triazol-2-yl)-2-[(3-chloro-4-fluorophenyl)amino]pyrimidin-5-yl}pyridine-3-carboxylic acid], for which the inhibition at 13 µM was 84.9%.
The result for `O=C(O)c1cncc(-c2cnc(Nc3cc(F)cc(F)c3)nc2-n2ccc(C(F)(F)F)n2)c1` [Example 639, 5-{2-[(3,5-difluorophenyl)amino]-4-[3-(trifluoromethyl)-1H-pyrazol-1-yl]pyrimidin-5-yl}pyridine-3-carboxylic acid] reads 100%; that for `Cc1nccn1-c1nc(Nc2ccc(F)c(Cl)c2)ncc1-c1cccc(/C=C/C(=O)O)c1` [Example 314, (2E)-3-(3-{2-[(3-chloro-4-fluorophenyl)amino]-4-(2-methyl-1H-imidazol-1-yl)pyrimidin-5-yl}phenyl)prop-2-enoic acid], 83.4%; that for `COc1ncc(-c2cnc(Nc3cc(C)cc(C)c3)nc2-n2nc(C(F)(F)F)cc2C)cc1C(=O)NS(=O)(=O)CCCN1CCOCC1` [Example 829, 5-{2-[(3,5-dimethylphenyl)amino]-4-[5-methyl-3-(trifluoromethyl)-1H-pyrazol-1-yl]pyrimidin-5-yl}-2-methoxy-N-{[3-(morpholin-4-yl)propyl]sulfonyl}pyridine-3-carboxamide], 100%.
For `Cc1cc(C(F)(F)F)nn1-c1nc(Nc2cccc(S(C)(=O)=O)c2)ncc1-c1cccc(/C=C/C(=O)O)c1` [Example 624, (2E)-3-[3-(2-{[3-(methylsulfonyl)phenyl]amino}-4-[5-methyl-3-(trifluoromethyl)-1H-pyrazol-1-yl]pyrimidin-5-yl)phenyl]prop-2-enoic acid], the inhibition at 13 µM was 89%.

For the origin of these results see US20100137313A1 (ASTRAZENECA AB, priority 2008, published 2010).
